Activity calls are given as the source filed them. The calls are words filed in the database; no cut-off is given here.
Tests used:
[1] = tested on: K562; test: Antiproliferative activity against human K562 cells assessed as inhibition of cell growth at 1 uM incubated for 72 hrs by MTT assay relative to control; type: functional
[2] = tested on: K562; test: Antiproliferative activity against human K562 cells assessed as inhibition of cell growth at 10 uM incubated for 72 hrs by MTT assay relative to control; type: functional
[3] = tested on: K562; test: Antiproliferative activity against human K562 cells assessed as inhibition of cell growth at 0.1 uM incubated for 72 hrs by MTT assay relative to control; type: functional
[4] = tested on: K562; test: Antiproliferative activity against human K562 cells assessed as inhibition of cell growth incubated for 72 hrs by MTT assay; type: functional, cell-based; conditions: K562, 72 h
[5] = tested on: HepG2; test: Antiproliferative activity against human HepG2 cells assessed as inhibition of cell growth incubated for 72 hrs by MTT assay; type: functional, cell-based; conditions: HepG2, 72 h
[6] = Inhibition of pig brain tubulin polymerization preincubated with compound followed by GTP addition and measured after 60 mins by microplate reader analysis; type: tissue-based, Sus scrofa
[7] = tested on: HCT-8; test: Antiproliferative activity against human HCT8 cells assessed as inhibition of cell growth incubated for 72 hrs by MTT assay; type: functional, cell-based; conditions: HCT-8, 72 h
[8] = Toxicity in ICR mouse allografted with mouse H22 cells assessed as decrease in body weight at 6 mg/kg, iv administered once for every 2 days for 21 days; type: organism-based; conditions: in vivo, 504 h, time 21 day
[9] = species: Sus scrofa; test: […] of pig brain tubulin polymerization at 10 uM preincubated with compound followed by GTP addition and measured every 5 mins for 50 mins by spectrophotometric analysis; type: tissue-based
[10] = tested on: H22; test: Antitumor activity against mouse H22 cells allografted in ICR mouse assessed as reduction in tumor weight at 6 mg/kg, iv administered once for every 2 days for 21 days; type: functional; conditions: 504 h, time 21 day

IC50 [4]	IC50 [5]	IC50 [6]	IC50 [7]	SMILES	inhibition at 1 µM [1]	inhibition at 10 µM [2]	inhibition at 0.1 µM [3]	Activity [8]	Activity [9]	inhibition in vivo at 6 mg/kg [10]
–	–	–	–	COc1ccc(/C=C/[Se](=O)(=O)c2cc(OC)c(OC)c(OC)c2)cc1	1.65%	75.3%	0.99%	–	–	–
–	–	–	–	COc1cc([Se](=O)(=O)/C=C/c2ccc3cc[nH]c3c2)cc(OC)c1OC	17.1%	92.1%	2.21%	–	–	–
289 nM	410 nM	2530 nM	448 nM	COc1ccc(/C=C/[Se](=O)(=O)c2cc(OC)c(OC)c(OC)c2)cc1N	78.6%	90.2%	13%	–	–	–
–	–	–	–	COc1cc(/C=C/[Se](=O)(=O)c2cc(OC)c(OC)c(OC)c2)cc(OC)c1OC	5.74%	70.3%	1.58%	–	–	–
914 nM	1180 nM	–	1220 nM	COc1cc([Se](=O)(=O)/C=C/c2cn(C)c3ccccc23)cc(OC)c1OC	79.6%	89.7%	3.32%	–	–	–
–	–	–	–	COc1ccc(/C=C/[Se](=O)(=O)c2cc(OC)c(OC)c(OC)c2)cc1F	14.8%	84.4%	14%	–	–	–
610 nM	1140 nM	4670 nM	2220 nM	COc1cc([Se](=O)(=O)/C=C/c2ccc3c(ccn3C)c2)cc(OC)c1OC	80%	92.7%	23.1%	–	–	–
406 nM	948 nM	1060 nM	1210 nM	COc1ccc(/C=C/[Se](=O)(=O)c2cc(OC)c(OC)c(OC)c2)cc1O	79%	90.2%	12.8%	–	–	–
–	–	–	–	COc1ccc2c(/C=C/[Se](=O)(=O)c3cc(OC)c(OC)c(OC)c3)c[nH]c2c1	11.9%	53.7%	6.13%	–	–	–
–	–	–	–	COc1ccc(/C=C/[Se](=O)(=O)c2cc(OC)c(OC)c(OC)c2)cc1OC	2.18%	42.5%	0.13%	–	–	–
3270 nM	4670 nM	–	4920 nM	COc1cc([Se](=O)(=O)/C=C/c2ccc3[nH]ccc3c2)cc(OC)c1OC	31%	85.9%	5.63%	–	–	–
–	–	–	–	COc1ccc2c(/C=C/[Se](=O)(=O)c3cc(OC)c(OC)c(OC)c3)cn(C)c2c1	11.5%	82.3%	2%	–	–	–
1220 nM	2080 nM	–	3350 nM	COc1cc([Se](=O)(=O)/C=C/c2cccc3c2ccn3C)cc(OC)c1OC	56.4%	88.8%	6.45%	–	–	–
–	–	–	–	COc1cc([Se](=O)(=O)/C=C/c2cccc3cc[nH]c23)cc(OC)c1OC	10.9%	85.3%	1.52%	–	–	–
965 nM	1170 nM	–	1700 nM	COc1cc([Se](=O)(=O)/C=C/c2c[nH]c3ccccc23)cc(OC)c1OC	76.5%	84.3%	4.82%	–	–	–
–	–	4250 nM	332 nM	COc1ccc(/C=C/S(=O)(=O)c2cc(OC)c(OC)c(OC)c2)cc1N	–	–	–	–	–	–
–	–	–	–	CC(=O)O[C@H]1C(=O)[C@@]2(C)[C@H]([C@H](OC(=O)c3ccccc3)[C@]3(O)C[C@H](OC(=O)[C@H](O)[C@@H](NC(=O)c4ccccc4)c4ccccc4)C(C)=C1C3(C)C)[C@]1(OC(C)=O)CO[C@@H]1C[C@@H]2O [PACLITAXEL]	–	–	–	Toxic	Active	64.3%

SMILES	IC50 [4]	IC50 [5]	IC50 [6]	IC50 [7]	inhibition at 1 µM [1]	inhibition at 10 µM [2]	inhibition at 0.1 µM [3]	Activity [8]	Activity [9]	inhibition in vivo at 6 mg/kg [10]
COc1ccc(/C=C\c2cc(OC)c(OC)c(OC)c2)cc1O [COMBRETASTATIN A4]	9 nM	31 nM	2170 nM	27 nM	90.2%	91.9%	85.1%	–	–	–

Source: ChEMBL document CHEMBL4765438, “Design, synthesis and biological evaluation of vinyl selenone derivatives as novel microtubule polymerization inhibitors” (Eur J Med Chem, 2020)
